Patent publication US20060223837A1 (priority 2005, published 2006)
Where a name gives a salt, the structure may show the parent alone.

Legend:
human VR1 [1] = molecular target: T1, human VR1 (Homo sapiens, UniProt Q8NER1); test: Human VR1 functional assay (FLIPR intracellular Ca2+); format: cell-based; conditions: for Emax at 6 µM / Emax at 12 µM / % Response Relative to EC80 of Capsaicin (12 μM): agonist response; for Emax at 6 µM: read-out: % Response Relative to EC80 of Capsaicin (6 μM); for EC50: agonist-induced Ca2+ increase, read-out: h EC50; for inhibition at 1 µM / inhibition at 5 µM / h % I (5 μM): inhibition of capsaicin response; for inhibition at 1 µM: read-out: h % I (1 μM); for IC50: antagonism of capsaicin-induced Ca2+ increase, read-out: h IC50; for inhibition at 5 µM: read-out: h % I (5 μM); for Emax at 12 µM: read-out: % Response Relative to EC80 of Capsaicin (12 μM)
T1 construct: expressed in transfected cells; host or cells: HEK293
T1 sequence (Q8NER1 whole entry): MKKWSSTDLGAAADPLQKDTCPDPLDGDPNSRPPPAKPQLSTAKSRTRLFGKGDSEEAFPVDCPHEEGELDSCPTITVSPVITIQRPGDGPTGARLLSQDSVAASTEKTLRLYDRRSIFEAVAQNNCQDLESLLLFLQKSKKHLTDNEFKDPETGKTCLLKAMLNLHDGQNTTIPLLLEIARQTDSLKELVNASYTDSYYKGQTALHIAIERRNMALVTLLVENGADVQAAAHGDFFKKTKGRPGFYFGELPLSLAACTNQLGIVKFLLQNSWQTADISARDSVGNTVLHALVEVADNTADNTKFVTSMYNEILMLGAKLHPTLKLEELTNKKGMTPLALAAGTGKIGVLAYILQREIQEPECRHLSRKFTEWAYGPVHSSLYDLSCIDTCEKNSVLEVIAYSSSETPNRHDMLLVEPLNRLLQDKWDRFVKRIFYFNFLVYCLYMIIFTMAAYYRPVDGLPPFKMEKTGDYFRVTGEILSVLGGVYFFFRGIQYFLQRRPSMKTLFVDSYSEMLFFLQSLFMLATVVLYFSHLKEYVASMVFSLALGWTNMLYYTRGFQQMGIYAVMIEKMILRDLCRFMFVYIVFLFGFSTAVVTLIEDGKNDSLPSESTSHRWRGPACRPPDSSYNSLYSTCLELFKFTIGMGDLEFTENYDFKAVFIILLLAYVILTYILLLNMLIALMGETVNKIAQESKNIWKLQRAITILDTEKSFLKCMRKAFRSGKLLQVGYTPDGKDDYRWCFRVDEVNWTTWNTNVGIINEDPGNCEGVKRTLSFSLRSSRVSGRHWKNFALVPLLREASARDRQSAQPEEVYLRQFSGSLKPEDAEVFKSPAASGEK
Outline: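 HEK293 cells expressing human VR1, loaded with Calcium 3 dye, were exposed to test compounds for 5 min while FLIPR recorded intracellular Ca2+, then challenged with capsaicin at ~80% maximal response ([…]). EC50 or IC50 came from dose-response curves on quadruplicate-well means.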

human VR1 [2] = molecular target: T1, human VR1; test: Human VR1 [3H]RTX binding assay; conditions: for Ki: [3H]RTX binding, HEK293 membranes; for inhibition at 1 µM / h Binding % I (1 μM): inhibition of [3H]RTX binding at 1 μM; for inhibition at 1 µM: read-out: h Binding % I (1 μM)
Outline: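 Membranes from human VR1-transfected HEK293 cells (~120 μg protein/ml) incubated with [3H]RTX in HEPES pH 7.4 with 0.25 mg/mL BSA, 37 C, 60 min. Bound counts by scintillation after α-acid glycoprotein and centrifugation; nonspecific defined with 200 nM unlabelled RTX. Ki from duplicate means.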

Compound	inhibition at 1 µM (human VR1 [1])	Ki (human VR1 [2])	inhibition at 1 µM (human VR1 [2])	h Binding % I (1 μM) (human VR1 [2])	further results
CC(C)(C)c1ccc(CCC(=O)Nc2ccc(-c3cccc(O)c3)c(CO)c2)cc1 [Cpd 93]	93%	34 nM			Emax at 6 µM (human VR1 [1]): 153%; EC50 (human VR1 [1]): 65 nM
CC(C)(C)c1ccc(CCC(=O)Nc2ccc(-c3ccc(O)cc3)c(CO)c2)cc1 [Cpd 94]	92%	42 nM			Emax at 6 µM (human VR1 [1]): 115%; EC50 (human VR1 [1]): 94 nM
CC(C)(C)c1ccc(CCC(=O)Nc2ccc(-c3ccc(CO)cc3)c(CO)c2)cc1 [Cpd 96]	91%	77 nM			Emax at 6 µM (human VR1 [1]): 65%
Cc1cc(NC(=O)CCc2ccc(C(C)(C)C)cc2)ccc1-c1ccccc1O [Cpd 97]	95%	15 nM			IC50 (human VR1 [1]): 228 nM; inhibition at 5 µM (human VR1 [1]): 104%
Cc1cc(NC(=O)CCc2ccc(C(C)(C)C)cc2)ccc1-c1ccc(O)cc1 [Cpd 98]	97%	58 nM			IC50 (human VR1 [1]): 418 nM; inhibition at 5 µM (human VR1 [1]): 102%
Cc1cc(NC(=O)CCc2ccc(C(C)(C)C)cc2)ccc1-c1ccc(CO)cc1 [Cpd 99]	97%	29 nM			IC50 (human VR1 [1]): 209 nM; inhibition at 5 µM (human VR1 [1]): 79%
CC(C)(C)c1ccc(CCC(=O)Nc2ccc(-c3ccccc3O)c(F)c2)cc1 [Cpd 100]	87%	68 nM			Emax at 6 µM (human VR1 [1]): 96%
CC(C)(C)c1ccc(CCC(=O)Nc2ccc(-c3ccc(O)cc3)c(F)c2)cc1 [Cpd 101]	95%	50 nM			Emax at 6 µM (human VR1 [1]): 71%
CC(C)(C)c1ccc(CCC(=O)Nc2ccc(-c3ccc(CO)cc3)c(F)c2)cc1 [Cpd 102]	97%	39 nM			Emax at 6 µM (human VR1 [1]): 74%
CC(C)(C)c1ccc(CCC(=O)Nc2ccccc2-c2ccncc2)cc1 [Cpd 103]			1%		IC50 (human VR1 [1]): 3520 nM
CC(C)(C)c1ccc(CCC(=O)Nc2cccc(-c3ccncc3)c2)cc1 [Cpd 104]		180 nM	73%		Emax at 12 µM (human VR1 [1]): 62%
CC(C)(C)c1ccc(CCC(=O)Nc2ccccc2-c2cccnc2)cc1 [Cpd 105]			1%		IC50 (human VR1 [1]): 3950 nM
CC(C)(C)c1ccc(CCC(=O)Nc2ccc(-c3cccnc3)cc2)cc1 [Cpd 107]		120 nM	82%		Emax at 12 µM (human VR1 [1]): 78%
CC(C)(C)c1ccc(CCC(=O)Nc2ccccc2-c2ccccn2)cc1 [Cpd 108]			16%		Emax at 12 µM (human VR1 [1]): 98%; EC50 (human VR1 [1]): 935 nM
CC(C)(C)c1ccc(CCC(=O)Nc2cccc(-c3ccccn3)c2)cc1 [Cpd 109, 3-(4-tert-butyl-phenyl)-N-(3-pyridin-2-yl-phenyl)-propionamide hydrochloride]			1%		Emax at 12 µM (human VR1 [1]): 47%
CC(C)(C)c1ccc(CCC(=O)Nc2ccc(-c3ccncc3)cc2)cc1 [Cpd 111, 3-(4-tert-butyl-phenyl)-N-(4-pyridin-4-yl-phenyl)-propionamide]		168 nM	61%		Emax at 12 µM (human VR1 [1]): 119%; EC50 (human VR1 [1]): 18 nM
CC(C)(C)c1ccc(CCC(=O)Nc2ccc(-c3cncnc3)cc2)cc1 [Cpd 113]		324 nM	67%		Emax at 12 µM (human VR1 [1]): 101%; EC50 (human VR1 [1]): 773 nM
CC(C)(C)c1ccc(CCC(=O)Nc2ccc(-c3ncccc3O)cc2)cc1 [Cpd 115]				34%	% Response Relative to EC80 of Capsaicin (12 μM) (human VR1 [1]): 58%
CC(C)(C)c1ccc(CCC(=O)Nc2cccc(-c3ncccn3)c2)cc1 [Cpd 116]			1.1%		IC50 (human VR1 [1]): 377 nM
CC(C)(C)c1ccc(CCC(=O)Nc2ccc(-c3cccc(O)c3)nc2)cc1 [Cpd 129]		41 nM	88%		Emax at 12 µM (human VR1 [1]): 126%; EC50 (human VR1 [1]): 17 nM
CC(C)(C)c1ccc(CCC(=O)Nc2ccc(-c3ccccc3O)nc2)cc1 [Cpd 132]				45%	h % I (5 μM) (human VR1 [1]): 30%
CC(C)(C)c1ccc(CCC(=O)Nc2ccc(-c3ccc(O)cc3)nc2)cc1 [Cpd 133]		10.9 nM	101%		Emax at 12 µM (human VR1 [1]): 95%
CC(C)(C)c1ccc(CCC(=O)Nc2ccc(-c3ccc(CO)cc3)nc2)cc1 [Cpd 135]		31.2 nM	90%		Emax at 12 µM (human VR1 [1]): 79%
CC(C)(C)c1ccc(CCC(=O)Nc2ccc(-c3cccnc3)nc2)cc1 [Cpd 136]		103 nM	84%		Emax at 12 µM (human VR1 [1]): 78%
CC(C)(C)c1ccc(CCC(=O)Nc2ccc(-c3ccncc3)nc2)cc1 [Cpd 137]		93 nM	66%		Emax at 12 µM (human VR1 [1]): 96%
CC(C)(C)c1csc(CCC(=O)Nc2ccc(-c3ccncc3)cc2)c1 [Cpd 138]		461 nM		61%	% Response Relative to EC80 of Capsaicin (12 μM) (human VR1 [1]): 113%
O=C(CCc1ccc(C(F)(F)F)cc1)Nc1ccc(-c2cccnc2)cc1 [Cpd 142]				45%	% Response Relative to EC80 of Capsaicin (12 μM) (human VR1 [1]): 78%

Compound	inhibition at 1 µM (human VR1 [1])	Ki (human VR1 [2])	inhibition at 1 µM (human VR1 [2])	h Binding % I (1 μM) (human VR1 [2])	further results
O=C(CCc1ccc(C(F)(F)F)cc1)Nc1ccc(-c2ccncc2)cc1 [Cpd 143]				44%	% Response Relative to EC80 of Capsaicin (12 μM) (human VR1 [1]): 111%
NC(=O)c1cccc(-c2ccc(NC(=O)CCc3ccc(C(F)(F)F)cc3)cn2)c1 [Cpd 144]				1%	% Response Relative to EC80 of Capsaicin (12 μM) (human VR1 [1]): 73%
CC(=O)Nc1cccc(-c2ccc(NC(=O)CCc3ccc(C(F)(F)F)cc3)cn2)c1 [Cpd 145]				16%	% Response Relative to EC80 of Capsaicin (12 μM) (human VR1 [1]): 92%
O=C(CCc1ccc(C(F)(F)F)cc1)Nc1ccc(-c2cccc(O)c2)nc1 [Cpd 147]		319 nM	62%		Emax at 12 µM (human VR1 [1]): 92%
O=C(CCc1ccc(C(F)(F)F)cc1)Nc1ccc(-c2ccc(O)cc2)nc1 [Cpd 148]		98.6 nM	73%		Emax at 12 µM (human VR1 [1]): 74%
O=C(CCc1ccc(C(F)(F)F)cc1)Nc1ccc(-c2cccc(CO)c2)nc1 [Cpd 149]				9%	% Response Relative to EC80 of Capsaicin (12 μM) (human VR1 [1]): 101%
O=C(CCc1ccc(C(F)(F)F)cc1)Nc1ccc(-c2ccc(CO)cc2)nc1 [Cpd 150]		149 nM	75%		Emax at 12 µM (human VR1 [1]): 79%
O=C(CCc1ccc(C(F)(F)F)cc1)Nc1ccc(-c2cccnc2)nc1 [Cpd 151]				35%	% Response Relative to EC80 of Capsaicin (12 μM) (human VR1 [1]): 91%
O=C(CCc1ccc(C(F)(F)F)cc1)Nc1ccc(-c2ccncc2)nc1 [Cpd 152]				37%	% Response Relative to EC80 of Capsaicin (12 μM) (human VR1 [1]): 100%
CC(C)(C)c1ccc(CCC(=O)Nc2ccc(-c3ccncc3)c3ccccc23)cc1 [Cpd 153]				1%	h % I (5 μM) (human VR1 [1]): 25%
O=C(CCc1ccc(C(F)(F)F)cc1)Nc1ccc(-c2ccncc2)c2ccccc12 [Cpd 157]				1%	h % I (5 μM) (human VR1 [1]): 12%
Cc1cc(NC(=O)CCc2ccc(C(C)(C)C)cc2)cnc1-c1ccccc1O [Cpd 160, 3-(4-tert-butyl-phenyl)-N-[6-(2-hydroxy-phenyl)-5-methyl-pyridin-3-yl]-propionamide]			101%		IC50 (human VR1 [1]): 27 nM; inhibition at 5 µM (human VR1 [1]): 96%
CC(C)(C)c1ccc(CCC(=O)Nc2cc(F)c(-c3ccncc3)c(F)c2)cc1 [Cpd 169]	96%	48 nM			Emax at 6 µM (human VR1 [1]): 45%
CC(C)(C)c1ccc(CCC(=O)Nc2ccc(-c3ccncc3)c(CO)c2)cc1 [Cpd 171]	60%	292 nM			Emax at 6 µM (human VR1 [1]): 119%
CC(C)(C)c1ccc(CCC(=O)Nc2cc(F)c(-c3ccccn3)c(F)c2)cc1 [Cpd 175]	75%	142 nM			
CC(C)(C)c1ccc(CCC(=O)Nc2ccc(-c3ccccn3)nc2)cc1 [Cpd 176]	99%	66 nM			inhibition at 5 µM (human VR1 [1]): 22%
Cc1cc(NC(=O)CCc2ccc(C(C)(C)C)cc2)ccc1-c1cccnc1 [Cpd 179]	81%	67 nM			IC50 (human VR1 [1]): 266 nM; inhibition at 5 µM (human VR1 [1]): 100%
Cc1cc(NC(=O)CCc2ccc(C(C)(C)C)cc2)ccc1-c1ccncc1 [Cpd 180]	91%	42 nM			Emax at 6 µM (human VR1 [1]): 96%
CC(C)(C)c1ccc(CCC(=O)Nc2ccc(-c3ccncc3)c(F)c2)cc1 [Cpd 182]	80%	55 nM			Emax at 6 µM (human VR1 [1]): 97%
Cn1ccnc1-c1ccc(NC(=O)CCc2ccc(C(C)(C)C)cc2)cc1 [Cpd 189]				4%	h % I (5 μM) (human VR1 [1]): 63%
Cn1cnc(-c2ccc(NC(=O)CCc3ccc(C(C)(C)C)cc3)cc2)c1 [Cpd 190]				56%	h % I (5 μM) (human VR1 [1]): 98%
Cn1cncc1-c1ccc(NC(=O)CCc2ccc(C(C)(C)C)cc2)cc1 [Cpd 191]			19%		IC50 (human VR1 [1]): 0.972 nM
CC(C)(C)c1ccc(CCC(=O)Nc2ccc(C3CN=CO3)cc2)cc1 (stereo not shown) [Cpd 194]				45%	h % I (5 μM) (human VR1 [1]): 94%
Cc1nc(-c2ccc(NC(=O)CCc3ccc(C(C)(C)C)cc3)cc2)cs1 [Cpd 195]				75%	h % I (5 μM) (human VR1 [1]): 20%
CC(C)(C)c1ccc(CCC(=O)Nc2ccc(-c3csnn3)cc2)cc1 [Cpd 197]				62%	IC50 (human VR1 [1]): 0.283 nM
CC(C)(C)c1ccc(CCC(=O)Nc2ccc(-n3cncn3)cc2)cc1 [Cpd 198]			37%		IC50 (human VR1 [1]): 3.82 nM
